Experiments:
RSV-A2-GFP [1] = experiment: Dose response experiments, progeny virus titered on HeLa cells; format: cell-based, human RSV strain A2; conditions: 1HAEo- cells
Method: Dose response experiments. 1HAEo-cells were infected as described, progeny virus collected, and tittered on HeLa cells in duplicate as described in SAR 2. During initial infection in 1HAEo-cells infectious media was replaced with media containing compounds at indicated concentrations at 2 hours post infection. Proportion of virus infected cells were quantified via indirect immunofluorescence assay.
To further assess the therapeutic potential of compounds identified in SAR 1 and SAR 2, a therapeutic index (TI) of each compound was identified (e.g., ratio of […]). […] Overall, the TI was increased from 4.1 for compound 5a to 12.3 with compound 5f.

MTT cell viability assay = format: cell-based, human; conditions: human; 1HAEo- cells, dose response; read-out: CC50 (cytotoxic concentration at which cell viability is reduced by half)
Method: (§1) MTT cell viability assay. 1HAEo-cells were grown in parallel with infected and compound treated cells in SAR and dose response experiments. 0.3 mg/mL of MTT ((3-(4,5-dimethylthiazol-2-yl)-2,5-diphenyl tetrazolium bromide)) in PBS was added to wells and incubated for 1 hour. Precipitate was dissolved in DMSO and absorbance was measured at 570 nm.

1HAEo- cells = experiment: MTT cell viability assay; format: cell-based, human; conditions: compounds at 10 μM, SAR screens
Method: as §1

RSV-GFP-A2 = experiment: Mutant escape assay (serial passage); format: cell-based, human RSV strain A2; conditions: 14 serial passages over five weeks, 1HAEo- cells
Method: Mutant escape assay. 1HAEo-cells were infected with RSV-GFP-A2 at an initial MOI of 0.1 and serial passaged over incubation periods of 48-72 hours. Samples were collected during passaging and stored in liquid nitrogen for tittering via indirect immunofluorescence assay. Ongoing low level viral infection during passaging was confirmed by identification of green fluorescence from GFP produced by the RSV-GFP in infected cells.
An established challenge to development of antiviral pharmaceuticals is the evolution of antiviral resistance. This is pronounced for viruses with RNA genome due to an inherent error-prone process of RNA-dependent RNA polymerase replication of a viral genome. Error prone replication results in a high mutation rate of RNA viruses that leads to development of antiviral resistance. As such, development of resistant mutants to compounds 5a and 5f was undertaken, as the site of mutations could provide further insights into the nature of the viral target.

RSV-A2-GFP [2] = experiment: Structure activity relationship screens of antiviral activity (SAR 1/SAR 2); progeny virus by indirect immunofluorescence; format: cell-based, human RSV strain A2; conditions: compounds at 10 μM, 1HAEo- cells, progeny virus on HeLa indicator cells
Method: (§2) Cells and virus. Hep-2 cells were grown in Opti-MEM media supplemented with 2% fetal bovine serum (FBS), 1HAEo-cells were grown in MEM media supplemented with 10% FBS, and Hela cells grown in DMEM supplemented with 10% FBS. Infections were conducted using human RSV strain A2 or RSV-A2-GFP strain described previously [Hallak, L. K.; Spillmann, D.; Collins, P. L.; Peeples, M. E. J. Virol. 2000, 74, 10508-10513]. A549 cells and Vero cells were grown in DMEM supplemented with 10% FBS and used for experiments with ZIKV (Cambodia strain).
Structure activity relationship screens of antiviral activity. 1HAEo-cells were seeded at 80% confluency and incubated overnight. In SAR1 cells were preincubated with compounds for one hour at 20 μM prior to infection, followed by dilution to 10 μM and infection with RSV-A2-GFP at an MOI of 1 for 2 hours. In SAR2 1HAEo-cells were infected with RSV-A2-GFP at an MOI of 0.5 for 2 hours without pre-incubation with compounds. At 2 hours post infection, infectious media was removed from wells to prevent carry over of infecting virus into progeny collections. Fresh media containing compounds at 10 μM was added for remainder of 48 hour incubation. […]
Progeny virus quantification via indirect immunofluorescence. […] Total cells (identified by DAPI staining) and infected cells were counted via the Operetta high content imaging system at 20x objective magnification. […]

[3] = target: T1, RSV viral replication complex (Human respiratory syncytial virus A, UniProt P28887); experiment: Cell extract-based in vitro inhibition of viral transcription; format: biochemical, RSV A2
T1 construct: endogenous in cells; crude lysolecithin cell extract

ZIKV (Cambodia strain) = experiment: Zika Virus antiviral screen (plaque assay); format: cell-based; conditions: 10 μM, progeny virus quantified on Vero cells by plaque assay, n=3
Method: as §2
Zika Virus antiviral screen. Vero cells were pre-treated with bis(indole) compounds at 10 μM for 4 hours before infection with ZIKV at an MOI of 1. After 48 hour infection progeny ZIKV was collected, serial diluted over 6 logs, and transferred onto fresh Vero cell monolayers and incubated for 4 days. Vero cell monolayers were then fixed with 10% formaldehyde and stained with crystal violet; viral infection was quantified via plaque assay.
ZIKV constitutes a virus distinct from RSV with a markedly different intracellular replication strategy. Both viruses encode a viral RdRp essential to viral replication; however, the structure and function of RSV RdRp and ZIKV RdRp are quite different. […] RSV polymerase recognizes cis-acting ‘gene start’ and ‘gene end’ elements of the viral genome to produce subgenomic mRNAs enabling translation of viral proteins. […]

T1 sequence (P28887 whole entry): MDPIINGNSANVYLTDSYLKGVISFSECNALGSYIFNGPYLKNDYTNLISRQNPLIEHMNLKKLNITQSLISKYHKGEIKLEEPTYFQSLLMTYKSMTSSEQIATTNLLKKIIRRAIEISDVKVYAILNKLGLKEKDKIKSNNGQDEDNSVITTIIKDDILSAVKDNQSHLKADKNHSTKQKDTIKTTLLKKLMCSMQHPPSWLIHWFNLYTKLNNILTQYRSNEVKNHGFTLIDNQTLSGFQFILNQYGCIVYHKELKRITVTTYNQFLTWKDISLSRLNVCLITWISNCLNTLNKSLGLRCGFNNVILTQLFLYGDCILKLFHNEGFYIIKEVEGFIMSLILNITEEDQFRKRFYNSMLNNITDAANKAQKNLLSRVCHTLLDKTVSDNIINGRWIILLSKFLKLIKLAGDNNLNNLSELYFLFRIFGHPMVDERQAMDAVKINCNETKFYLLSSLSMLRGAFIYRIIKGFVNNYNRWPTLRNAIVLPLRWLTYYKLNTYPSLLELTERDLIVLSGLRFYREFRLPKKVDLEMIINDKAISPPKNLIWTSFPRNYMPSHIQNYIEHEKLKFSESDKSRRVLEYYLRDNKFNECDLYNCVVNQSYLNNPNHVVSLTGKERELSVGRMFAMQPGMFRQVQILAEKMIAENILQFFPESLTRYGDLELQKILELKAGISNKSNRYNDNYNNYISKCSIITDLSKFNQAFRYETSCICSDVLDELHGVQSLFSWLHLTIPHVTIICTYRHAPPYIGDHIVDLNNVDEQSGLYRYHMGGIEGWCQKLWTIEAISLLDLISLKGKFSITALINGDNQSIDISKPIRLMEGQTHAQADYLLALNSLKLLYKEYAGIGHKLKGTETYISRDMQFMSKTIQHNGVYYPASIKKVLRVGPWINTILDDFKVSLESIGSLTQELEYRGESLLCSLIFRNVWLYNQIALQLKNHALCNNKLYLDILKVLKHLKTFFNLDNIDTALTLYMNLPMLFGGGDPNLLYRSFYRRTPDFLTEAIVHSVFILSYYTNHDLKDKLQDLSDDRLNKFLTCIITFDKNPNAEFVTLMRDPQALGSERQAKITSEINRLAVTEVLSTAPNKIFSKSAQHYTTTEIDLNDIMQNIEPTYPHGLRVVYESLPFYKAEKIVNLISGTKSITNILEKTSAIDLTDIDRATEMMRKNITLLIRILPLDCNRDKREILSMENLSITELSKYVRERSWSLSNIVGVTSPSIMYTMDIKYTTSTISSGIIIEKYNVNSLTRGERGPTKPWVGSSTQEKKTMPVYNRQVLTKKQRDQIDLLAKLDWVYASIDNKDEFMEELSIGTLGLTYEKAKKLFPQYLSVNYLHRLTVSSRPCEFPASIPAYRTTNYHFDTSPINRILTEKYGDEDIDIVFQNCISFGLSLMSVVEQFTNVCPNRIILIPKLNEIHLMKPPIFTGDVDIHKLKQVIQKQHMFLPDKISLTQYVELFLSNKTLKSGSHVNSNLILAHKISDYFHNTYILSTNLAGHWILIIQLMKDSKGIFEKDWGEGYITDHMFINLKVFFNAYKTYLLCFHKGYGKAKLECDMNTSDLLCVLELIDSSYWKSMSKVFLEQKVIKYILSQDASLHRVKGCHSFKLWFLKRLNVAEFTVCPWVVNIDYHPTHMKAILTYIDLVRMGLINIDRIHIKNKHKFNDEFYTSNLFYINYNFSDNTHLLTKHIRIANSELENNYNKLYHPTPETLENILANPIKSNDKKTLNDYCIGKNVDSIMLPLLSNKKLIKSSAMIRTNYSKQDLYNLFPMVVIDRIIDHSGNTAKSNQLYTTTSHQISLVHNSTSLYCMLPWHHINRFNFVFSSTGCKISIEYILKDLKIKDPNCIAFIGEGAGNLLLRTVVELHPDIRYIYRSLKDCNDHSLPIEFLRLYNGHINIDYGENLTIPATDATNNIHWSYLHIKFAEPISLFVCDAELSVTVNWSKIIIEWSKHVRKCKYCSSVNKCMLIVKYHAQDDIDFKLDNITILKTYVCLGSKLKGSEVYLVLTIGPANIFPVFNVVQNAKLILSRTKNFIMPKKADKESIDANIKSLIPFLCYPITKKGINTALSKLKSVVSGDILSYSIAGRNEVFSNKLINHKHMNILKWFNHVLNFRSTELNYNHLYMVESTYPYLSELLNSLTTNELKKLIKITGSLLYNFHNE
T1 sequence (P03421 whole entry, further chain): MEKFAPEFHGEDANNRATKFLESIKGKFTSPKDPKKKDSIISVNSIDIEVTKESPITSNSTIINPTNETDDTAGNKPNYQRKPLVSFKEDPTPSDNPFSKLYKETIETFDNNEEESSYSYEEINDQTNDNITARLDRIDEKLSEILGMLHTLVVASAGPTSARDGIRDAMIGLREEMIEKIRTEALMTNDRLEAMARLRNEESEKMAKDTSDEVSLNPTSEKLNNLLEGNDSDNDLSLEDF

SMILES	viral replication at concentrations tolerated by the host cell (RSV-A2-GFP [1])	CC50 (MTT cell viability assay) [µM]	cytotoxicity (cell viability) (1HAEo- cells)	development of resistant virus (RSV-GFP-A2)	antiviral activity (inhibition of RSV infection) (RSV-A2-GFP [2])	viral transcription from the RSV replication complex [3]	inhibition of ZIKV infection (ZIKV (Cambodia strain))
COC(=O)C1(c2cn(C)c3ccccc23)Nc2cc(Cl)ccc2C1=O (stereo not shown) [Compound 2p]	viral replication was not diminished at compound concentrations tolerated by the host cell	22.8	demonstrated cytotoxicity in SAR 1				
COC(=O)C1(c2c(-c3ccc(OC)cc3)[nH]c3ccccc23)Nc2cc(Br)ccc2C1=O (stereo not shown) [Compound 5f]		93.5		did not result in the development of viruses resistant to either compound			
COC(=O)C1(c2c(-c3ccccc3)[nH]c3ccccc23)Nc2cc(Cl)ccc2C1=O (stereo not shown) [Compound 5a]	consistently inhibited viral replication at concentrations tolerated by the host cell	42.5	no cytotoxicity	did not result in the development of viruses resistant to either compound	comparable to that of the known antiviral guanosine-analogue drug ribavirin	Decreasing viral transcription from the RSV replication complex was observed in a dose dependent manner	Significant inhibition
COC(=O)C1(c2c(-c3ccc(OC)cc3)[nH]c3ccccc23)Nc2cc(Cl)ccc2C1=O (stereo not shown) [Compound 5b]		59.2					

Reference: patent publication US11566018B2, “Treatment of infectious disease” (The Governors of the University of Alberta, priority 2018, dated 2023)
